Assay [1] deals with T1, FV-810^R709Q (Homo sapiens, UniProt P12259, DEL839-1519/R737Q).
T1 construct: amino acids 1-28 are a signal peptide that is cleaved and numbering begins at residue 29; made in house
In words: Clotting assay with FV-810^R709Q. The settings on record: prior to thrombin cleavage. In kind it is biochemical. The method, then: (§1) Residual clotting activity of Factor V variants was determined by prothrombin time-based clotting assays. Factor V variants were incubated with either the FVBR or s46 peptide, after which the mixtures were mixed with Factor V deficient plasma and clotting times were measured. Where indicated, the Factor V variants were activated by pre-incubation with thrombin prior to addition of the peptides.
(§2) FV derivatives (500 nM) were prepared in assay buffer. Where noted, FV derivatives were pretreated with 10 nM thrombin for 15 minutes at 37° C., followed by the addition of 15 nM hirudin. Samples were diluted to 0.25 nM in assay buffer with 0.1% BSA, and the specific clotting activity was measured in FV-deficient plasma (George King Bio-Medical, Overland Park, Kans.) with TriniCLOT PT Excel (Tcoag, Wicklow, Ireland) as described (Camire et al. (1998) Biochemistry 37:11896-11906). The data are presented as the means±S.D.

Assay [2] deals with T2, rFVa (Homo sapiens, UniProt P12259).
T2 construct: thrombin rapidly cleaves Factor V at Arg709 to produce heavy chain (HC); rapidly cleaves at Arg1018 and Arg1545 to produce light chain (LC); made in house
T2 sequence (P12259 29-737 limits assumed): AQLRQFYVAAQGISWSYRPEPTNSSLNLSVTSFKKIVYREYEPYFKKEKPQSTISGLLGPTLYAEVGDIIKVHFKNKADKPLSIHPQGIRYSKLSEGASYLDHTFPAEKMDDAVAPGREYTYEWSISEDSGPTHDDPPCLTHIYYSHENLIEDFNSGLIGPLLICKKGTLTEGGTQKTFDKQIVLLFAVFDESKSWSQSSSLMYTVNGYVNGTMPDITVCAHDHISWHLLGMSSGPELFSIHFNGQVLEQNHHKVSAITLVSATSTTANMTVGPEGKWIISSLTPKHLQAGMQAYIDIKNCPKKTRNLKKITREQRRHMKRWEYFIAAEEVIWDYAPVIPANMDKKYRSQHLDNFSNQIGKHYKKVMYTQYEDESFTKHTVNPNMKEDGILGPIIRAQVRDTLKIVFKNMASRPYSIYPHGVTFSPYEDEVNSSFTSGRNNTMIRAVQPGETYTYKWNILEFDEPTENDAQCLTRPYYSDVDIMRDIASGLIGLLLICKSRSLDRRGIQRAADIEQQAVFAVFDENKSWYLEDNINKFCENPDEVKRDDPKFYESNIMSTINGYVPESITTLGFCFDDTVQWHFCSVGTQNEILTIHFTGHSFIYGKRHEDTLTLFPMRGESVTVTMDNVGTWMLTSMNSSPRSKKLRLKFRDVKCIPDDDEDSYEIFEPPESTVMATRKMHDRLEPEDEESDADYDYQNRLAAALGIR
T2 sequence (P12259 1574-2224 limits assumed): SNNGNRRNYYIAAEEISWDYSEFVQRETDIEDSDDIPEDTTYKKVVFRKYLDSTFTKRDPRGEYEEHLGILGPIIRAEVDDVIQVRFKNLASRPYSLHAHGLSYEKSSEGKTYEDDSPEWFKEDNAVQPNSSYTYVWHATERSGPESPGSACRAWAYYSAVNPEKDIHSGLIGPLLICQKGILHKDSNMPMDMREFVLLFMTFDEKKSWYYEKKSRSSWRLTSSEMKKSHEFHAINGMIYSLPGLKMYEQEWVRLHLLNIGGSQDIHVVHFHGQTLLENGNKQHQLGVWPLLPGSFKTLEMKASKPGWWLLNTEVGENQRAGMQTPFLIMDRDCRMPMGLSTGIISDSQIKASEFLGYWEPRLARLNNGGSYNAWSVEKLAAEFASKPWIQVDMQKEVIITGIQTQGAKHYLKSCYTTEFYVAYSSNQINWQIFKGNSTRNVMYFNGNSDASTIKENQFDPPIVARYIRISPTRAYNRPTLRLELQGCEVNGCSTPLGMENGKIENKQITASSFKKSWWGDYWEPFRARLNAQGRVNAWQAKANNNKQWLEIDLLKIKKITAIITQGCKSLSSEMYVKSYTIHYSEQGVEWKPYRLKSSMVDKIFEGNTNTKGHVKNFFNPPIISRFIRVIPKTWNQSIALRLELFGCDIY
Description: Clotting assay, FV-deficient plasma supplemented with rFVa. In kind it is biochemical. The settings on record: FIG. 8B: 0.25 nM rFVa, peptides at 5 μM, listed as BR peptide. The procedure:
as §1, §2

The target in assay [3] is T3, FXa/FV-DT (Homo sapiens, UniProt P12259, DEL839-1519).
T3 construct: amino acids 1-28 are a signal peptide that is cleaved and numbering begins at residue 29; made in house
T3 sequence (P12259 with tags, fused parts or gaps DEL839-1519): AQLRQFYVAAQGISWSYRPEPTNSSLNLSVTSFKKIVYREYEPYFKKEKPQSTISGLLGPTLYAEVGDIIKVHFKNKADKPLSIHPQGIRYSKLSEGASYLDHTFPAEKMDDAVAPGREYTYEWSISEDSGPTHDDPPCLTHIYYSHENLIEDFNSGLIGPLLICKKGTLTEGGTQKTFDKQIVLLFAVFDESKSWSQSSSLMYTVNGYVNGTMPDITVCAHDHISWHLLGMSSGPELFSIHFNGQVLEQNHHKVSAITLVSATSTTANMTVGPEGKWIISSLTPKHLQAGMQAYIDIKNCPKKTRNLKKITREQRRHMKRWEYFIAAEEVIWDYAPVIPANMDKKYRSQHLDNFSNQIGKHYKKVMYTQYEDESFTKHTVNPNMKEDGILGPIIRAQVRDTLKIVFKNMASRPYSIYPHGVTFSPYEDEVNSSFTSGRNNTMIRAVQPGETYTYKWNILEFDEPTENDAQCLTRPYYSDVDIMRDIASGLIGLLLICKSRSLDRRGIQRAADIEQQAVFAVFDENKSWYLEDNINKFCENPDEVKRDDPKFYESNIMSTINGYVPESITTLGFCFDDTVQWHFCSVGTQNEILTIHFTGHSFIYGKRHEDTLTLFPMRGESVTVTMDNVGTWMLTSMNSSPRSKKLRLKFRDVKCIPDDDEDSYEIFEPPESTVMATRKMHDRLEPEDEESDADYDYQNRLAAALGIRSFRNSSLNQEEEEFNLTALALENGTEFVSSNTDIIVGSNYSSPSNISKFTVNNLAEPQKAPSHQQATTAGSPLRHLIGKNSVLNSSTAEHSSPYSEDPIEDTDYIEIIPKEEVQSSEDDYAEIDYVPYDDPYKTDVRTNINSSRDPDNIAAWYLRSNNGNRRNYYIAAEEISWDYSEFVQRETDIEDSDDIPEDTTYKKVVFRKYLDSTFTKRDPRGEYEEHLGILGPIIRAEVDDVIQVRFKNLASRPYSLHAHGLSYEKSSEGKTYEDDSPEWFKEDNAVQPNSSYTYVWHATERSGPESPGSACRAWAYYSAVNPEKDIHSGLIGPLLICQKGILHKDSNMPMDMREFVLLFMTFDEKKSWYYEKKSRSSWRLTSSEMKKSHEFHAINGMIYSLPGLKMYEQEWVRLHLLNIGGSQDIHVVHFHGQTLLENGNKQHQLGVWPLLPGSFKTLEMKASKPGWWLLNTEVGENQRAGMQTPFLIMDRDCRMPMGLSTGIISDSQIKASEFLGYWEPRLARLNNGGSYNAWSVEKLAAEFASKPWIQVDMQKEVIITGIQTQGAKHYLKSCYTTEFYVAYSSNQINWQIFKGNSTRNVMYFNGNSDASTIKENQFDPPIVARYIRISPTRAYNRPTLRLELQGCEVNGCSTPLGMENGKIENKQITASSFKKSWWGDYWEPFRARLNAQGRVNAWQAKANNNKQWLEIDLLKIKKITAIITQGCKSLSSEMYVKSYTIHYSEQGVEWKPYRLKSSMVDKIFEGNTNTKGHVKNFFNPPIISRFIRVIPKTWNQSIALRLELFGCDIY
Description: Prothrombin activation assay, prothrombinase containing FV-810 (FV-DT). In kind it is biochemical. The settings on record: peptide titrated, 1.4 μM prothrombin, 50 μM PCPS, 25° C. The method, then: Steady-state initial velocities of prothrombin cleavage were determined discontinuously at 25° C. by measuring the initial rate of thrombin formation. Reaction mixtures contained liposomes (75:25, PC:PS), prothrombin, the indicated Factor V variants, and the Factor V peptides FVBR or s46. The reactions were initiated by adding Factor Xa, and thrombin generation was determined at multiple time points by monitoring the cleavage of the chromogenic thrombin substrate S-2238.
Steady-state initial velocities of prothrombin cleavage were determined discontinuously at 25° C. as described (Camire, R. M. (2002) J. Biol. Chem., 277:37863-37870). Reaction mixtures containing PCPS (50 μM), DAPA (3 μM), prothrombin (1.4 μM), and either rFVa or the indicated FV-810 derivatives were incubated with B-domain peptides (0-10 μM) in assay buffer. […] Prothrombin activation was determined using the chromogenic thrombin substrate 52238 as described (Camire, R. M. (2002) J. Biol. Chem., 277:37863-37870).

For assay [4], the target named is T4, FV-810 (Homo sapiens, UniProt P12259, DEL839-1519).
T4 construct: amino acids 1-28 are a signal peptide that is cleaved and numbering begins at residue 29; made in house
T4 sequence (P12259 with tags, fused parts or gaps DEL839-1519): as above
In words: Clotting assay, FV-deficient plasma supplemented with FV-810 (FV-DT). It counts as biochemical. The settings on record: for inhibition of clotting activity of FV-810 (FV-DT): FV-deficient plasma, FIG. 8A: 0.25 nM FV-810, peptides at 5 μM. The procedure: as §1, §2

Assay [5] addresses T5, FXa/FVa (Homo sapiens, UniProt P12259).
T5 construct: thrombin rapidly cleaves Factor V at Arg709 to produce heavy chain (HC); rapidly cleaves at Arg1018 and Arg1545 to produce light chain (LC); made in house
T5 sequence (P12259 29-737 limits assumed): T2 sequence (P12259 29-737 limits assumed)
T5 sequence (P12259 1574-2224 limits assumed): T2 sequence (P12259 1574-2224 limits assumed)
Description: Binding of fluorescently labeled FXa to rFVa on liposomes (anisotropy). The settings on record: on PCPS liposomes.

Assay [6] concerns the target T6, FV-810^R1545Q (Homo sapiens, UniProt P12259, DEL839-1519/R1573Q).
T6 construct: amino acids 1-28 are a signal peptide that is cleaved and numbering begins at residue 29; made in house
In words: Clotting assay with FV-810^R1545Q. It counts as biochemical. The procedure:
as §1, §2

Assay [7] has as its target T4, FV-810. In words: Displacement of OG488-BR from preformed OG488-BR/FV-810 complex (fluorescence anisotropy). In kind it is binding. The settings on record: 30 nM OG488-BR, 20 nM FV-810, 50 μM PCPS; for Kd: 25° C. For orientation: Fluorescence polarisation rises when a labelled molecule tumbles more slowly, as on binding a larger partner.
Assay [8] deals with normal human plasma. Description: Clot time of normal human plasma. It counts as biochemical. The settings on record: increasing amounts of FVBR.

“Also recorded” adds a separate entry of the source. Ends that are not written are not given here.

T6 sequence (P12259 with tags, fused parts or gaps DEL839-1519/R1573Q): as the sequence (P12259 with tags, fused parts or gaps DEL839-1519) above, with R864Q counted along it
T1 sequence (P12259 with tags, fused parts or gaps R737Q/DEL839-1519): as the sequence (P12259 with tags, fused parts or gaps DEL839-1519) above, with R709Q counted along it

Regarding “SRAWGESTPLANKPGKQSGHPKFPRVRHKSLQVRQDGGKSRLKKSQFLIKTRKKKKEK [FVBR]”, in assay [1], the “inhibition of FV-810^R709Q” value is on record as “potently inhibited”. Further, the “inhibition of clotting activity of rFVa/FVa” value in assay [2] is “no inhibitory effect”. Further, the “inhibition of prothrombin activation with FV-810 (FV-DT)” value in assay [3] is recorded as “inhibiting; also recorded: inhibition”; in assay [3] (listed as BR peptide) it was “effectively inhibited”. The “inhibition of clotting activity of FV-810 (FV-DT)” value is on record as “inhibited” in assay [4] and “similarly inhibited” in assay [4] (listed as BR peptide). Besides, the “inhibition of FV-810” value in assay [4] (prior to thrombin cleavage) is “potently inhibited”. In assay [5], the “disruption of FXa binding to FVa” value is recorded as “not FVa”. Also, the “inhibition of FV-810^R1545Q” value is “still inhibited” in assay [6] (following incubation with thrombin) and “potently inhibited” in assay [6] (prior to thrombin cleavage). For the same sequence, the “stoichiometry n, unlabeled BR” value in assay [7] was 1.0±0.06 mol of BR/mol of FV-810. Besides, the Kd in assay [7] (assuming stoichiometry of 1 mol of FV-810/mol of BR peptide) worked out at 2.2 ± 0.2 nM; in assay [7] (n fitted), 2.1 ± 0.2 nM. Also, the “clot time of normal plasma” value in assay [8] is recorded as “prolongs the clot time”.

As a reminder, the Kd is the constant that tells how readily two partners part at equilibrium.

The record behind these values is patent US10239933B2, “Compositions and methods for modulating thrombin generation” (The Children's Hospital of Philadelphia, priority 2011, dated 2019).
